Experimental data reported in patent US20230077362A1 (CORTEVA AGRISCIENCE LLC, priority 2019, published 2023).
Like-named read-outs stand apart in the source and are kept apart here.

Assays:
[1] = test system: Beet Armyworm (Spodoptera exigua) ("BAW"), second instar larvae; assay: Bioassay on beet armyworm (BAW), 128-well diet tray assay; assay type: in vivo; details: for pest or weed control at 50 µg/cm2: Spodoptera exigua; for BAW rating: Table ABC, species BAW, C = not tested, D = no activity noticed
Method in brief: (§1)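 Second-instar larvae on diet in 128-well trays, covered and held at 25° C, 14:10 light-dark, for five to seven days. Percent mortality scored per well and averaged over eight wells; activity reported as a rating category.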

[2] = test system: Cabbage Looper (Trichoplusia ni) ("CL"), second instar larvae; assay: Bioassay on cabbage looper (CL), 128-well diet tray assay; assay type: in vivo; details: for pest or weed control at 50 µg/cm2: Trichoplusia ni; for CL rating: Table ABC, species CL, C = not tested, D = no activity noticed
Method in brief: as §1

[3] = read-out: BAW (Biological Results, rating)
[4] = read-out: CL (Biological Results, rating)

With COCc1ccc(C)cc1N1C(=O)CS/C1=N\C(=O)Nc1ccc(-c2ncn(-c3ccc(OC(F)(F)F)cc3)n2)cc1C [Compound J67, (Z)-1-(3-(2-(Methoxymethyl)-5-methylphenyl)-4-oxothiazolidin-2-ylidene)-3-(2-methyl-4-(1-(4-(trifluoromethoxy)phenyl)-1H-1,2,4-triazol-3-yl)phenyl)urea] the pest or weed control at 50 µg/cm2 [1, 3] was 50 to 100% and the pest or weed control at 50 µg/cm2 [2, 4] was 50 to 100%.

With COc1ccc(C(C)C)c(N2C(=O)CS/C2=N\C(=O)Nc2ccc(-c3ncn(-c4ccc(C(F)(F)F)cn4)n3)cc2F)c1 [Compound J283, (Z)-1-(2-fluoro-4-(1-(5-(trifluoromethyl)pyridin-2-yl)-1H-1,2,4-triazol-3-yl)phenyl)-3-(3-(2-isopropyl-5-methoxyphenyl)-4-oxothiazolidin-2-ylidene)urea] the pest or weed control at 50 µg/cm2 [1, 3] was 50 to 100% and the pest or weed control at 50 µg/cm2 [2, 4] was 50 to 100%.

For COc1ccc(C(C)C)c(N2C(=O)CS/C2=N\C(=O)Nc2ccc(-c3ncn(-c4ccc(OC(F)(F)C(F)(F)F)cc4)n3)cc2OC)c1 [Compound J29, (Z)-1-(3-(2-Isopropyl-5-methoxyphenyl)-4-oxothiazolidin-2-ylidene)-3-(2-methoxy-4-(1-(4-(perfluoroethoxy)phenyl)-1H-1,2,4-triazol-3-yl)phenyl)urea], the pest or weed control at 50 µg/cm2 [1, 3] was 50 to 100% and the pest or weed control at 50 µg/cm2 [2, 4] was 50 to 100%.

Cc1ccc(COCC(Cl)Cl)c(N2C(=O)CS/C2=N\C(=O)Nc2ccc(-c3ncn(-c4ccc(OC(F)(F)F)cc4)n3)cc2C)c1 [Compound J555] was tested, and the pest or weed control at 50 µg/cm2 ([1]; read-out: BAW rating) was 50 to 100% and the pest or weed control at 50 µg/cm2 ([2]; read-out: CL rating) was 50 to 100%.

Compound COc1ccc(C(C)C)c(N2C(=O)CS/C2=N\C(=O)Nc2ccc(-c3ncn(-c4ccc(OC(F)(F)F)cc4)n3)cc2C(C)C)c1 [Compound J100, (Z)-1-(2-Isopropyl-4-(1-(4-(trifluoromethoxy)phenyl)-1H-1,2,4-triazol-3-yl)phenyl)-3-(3-(2-isopropyl-5-methoxyphenyl)-4-oxothiazolidin-2-ylidene)urea] has a pest or weed control at 50 µg/cm2 [1, 3] of 50 to 100% and a pest or weed control at 50 µg/cm2 [2, 4] of 50 to 100%.

CCCc1ccc(N(C)C)cc1N1C(=O)CS/C1=N\C(=O)Nc1ccc(-c2ncn(-c3ccc(S(=O)(=O)C(F)(F)F)cc3)n2)cc1C [Compound J374, (Z)-1-(3-(5-(Dimethylamino)-2-propylphenyl)-4-oxothiazolidin-2-ylidene)-3-(2-methyl-4-(1-(4-((trifluoromethyl)sulfonyl)phenyl)-1H-1,2,4-triazol-3-yl)phenyl)urea] was tested, and the pest or weed control at 50 µg/cm2 ([1]; read-out: BAW rating) was 50 to 100% and the pest or weed control at 50 µg/cm2 ([2]; read-out: CL rating) was 50 to 100%.

Work on Cc1ccc(COCC(F)(F)F)c(N2C(=O)CS/C2=N\C(=O)Nc2ccc(-c3ncn(-c4ccc(OCC#N)cc4)n3)cc2F)c1 [Compound J343, (Z)-1-(4-(1-(4-(Cyanomethoxy)phenyl)-1H-1,2,4-triazol-3-yl)-2-fluorophenyl)-3-(3-(5-methyl-2-((2,2,2-trifluoroethoxy)methyl)phenyl)-4-oxothiazolidin-2-ylidene)urea] yielded a pest or weed control at 50 µg/cm2 [1, 3] of 50 to 100% and a pest or weed control at 50 µg/cm2 [2, 4] of 50 to 100%.

For Cc1ccc(OCCC(F)(F)F)c(N2C(=O)CS/C2=N\C(=O)Nc2ccc(-c3ncn(-c4ccc(S(F)(F)(F)(F)F)cc4)n3)cc2C(F)(F)F)c1 [Compound J629, (Z)-1-(3-(5-Methyl-2-(3,3,3-trifluoropropoxy)phenyl)-4-oxothiazolidin-2-ylidene)-3-(4-(1-(4-(pentafluoro-λ^6-sulfaneyl)phenyl)-1H-1,2,4-triazol-3-yl)-2-(trifluoromethyl)phenyl)urea], the pest or weed control at 50 µg/cm2 ([1]; read-out: BAW rating) was 50 to 100% and the pest or weed control at 50 µg/cm2 ([2]; read-out: CL rating) was 50 to 100%.

With CC(C)c1ccc(N(C)C)cc1N1C(=O)CS/C1=N\C(=O)Nc1ccc(-c2ncn(-c3ccc(OC(F)(F)F)cn3)n2)cc1C(F)(F)F [Compound J275, (Z)-1-(3-(5-(Dimethylamino)-2-isopropylphenyl)-4-oxothiazolidin-2-ylidene)-3-(4-(1-(5-(trifluoromethoxy)pyridin-2-yl)-1H-1,2,4-triazol-3-yl)-2-(trifluoromethyl)phenyl)urea] the pest or weed control at 50 µg/cm2 [1, 3] was 50 to 100% and the pest or weed control at 50 µg/cm2 [2, 4] was 50 to 100%.

In the case of Cc1ccc(COCC(F)(F)F)c(N2C(=O)CS/C2=N\C(=O)Nc2ccc(-c3ncn(-c4cccc(C(F)(F)F)c4)n3)cc2C)c1 [Compound J727], the BAW rating [1] is reported as “A (50-100)” and the CL rating [2] is reported as “A (50-100)”.

Cc1cc(-c2ncn(-c3ccc(OC(F)(F)F)cc3)n2)ccc1NC(=O)/N=C1\SCC(=O)N1c1cc(N(C)C)ccc1C(C)C [Compound J68, (Z)-1-(3-(5-(Dimethylamino)-2-isopropylphenyl)-4-oxothiazolidin-2-ylidene)-3-(2-methyl-4-(1-(4-(trifluoromethoxy)phenyl)-1H-1,2,4-triazol-3-yl)phenyl)urea] gave a pest or weed control at 50 µg/cm2 [1, 3] of 50 to 100% and a pest or weed control at 50 µg/cm2 [2, 4] of 50 to 100%.

CCOCc1ccc(C)cc1N1C(=O)CS/C1=N\C(=O)Nc1ccc(-c2ncn(-c3ccc(SC(F)(F)F)cc3)n2)cc1C [Compound J205, (Z)-1-(3-(2-(Ethoxymethyl)-5-methylphenyl)-4-oxothiazolidin-2-ylidene)-3-(2-methyl-4-(1-(4-((trifluoromethyl)thio)phenyl)-1H-1,2,4-triazol-3-yl)phenyl)urea] gave a pest or weed control at 50 µg/cm2 [1, 3] of 50 to 100% and a pest or weed control at 50 µg/cm2 [2, 4] of 50 to 100%.

COC(C)c1ccc(C)cc1N1C(=O)CS/C1=N\C(=O)Nc1ccc(-c2ncn(-c3ccc(S(F)(F)(F)(F)F)cc3)n2)cc1F (stereo not shown) [Compound J423] was tested, and the BAW rating [1] was “A (50-100)” and the CL rating [2] was “A (50-100)”.

With Cc1cccc(N2C(=O)CS/C2=N\C(=O)Nc2ccc(-c3ncn(-c4ccc(S(F)(F)(F)(F)F)cc4)n3)cc2F)c1COCC(F)(F)F [Compound J567] the BAW rating [1] was “A (50-100)” and the CL rating [2] was “A (50-100)”.

In the case of CN(C)c1ccc(OCCC(F)(F)F)c(N2C(=O)CS/C2=N\C(=O)Nc2ccc(-c3ncn(-c4ccc(OC(F)(F)F)cc4)n3)cc2C(F)(F)F)c1 [Compound J118, (Z)-1-(3-(5-(Dimethylamino)-2-(3,3,3-trifluoropropoxy)phenyl)-4-oxothiazolidin-2-ylidene)-3-(4-(1-(4-(trifluoromethoxy)phenyl)-1H-1,2,4-triazol-3-yl)-2-(trifluoromethyl)phenyl)urea], the pest or weed control at 50 µg/cm2 [1, 3] is reported as 50 to 100% and the pest or weed control at 50 µg/cm2 [2, 4] is reported as 50 to 100%.

Work on COC(C)c1ccc(C)cc1N1C(=O)CS/C1=N\C(=O)Nc1ccc(-c2cn(-c3ccc(OC(F)(F)F)cc3)cn2)cc1 (stereo not shown) [Compound J463, (Z)-1-(3-(2-(1-Methoxyethyl)-5-methylphenyl)-4-oxothiazolidin-2-ylidene)-3-(4-(1-(4-(trifluoromethoxy)phenyl)-1H-imidazol-4-yl)phenyl)urea] yielded a pest or weed control at 50 µg/cm2 ([1]; read-out: BAW rating) of 50 to 100% and a pest or weed control at 50 µg/cm2 ([2]; read-out: CL rating) of 50 to 100%.

COC(C)c1ccc(C)cc1N1C(=O)CS/C1=N\C(=O)Nc1ccc(-c2nnc(-c3ccc(OC(F)(F)F)cc3)o2)cc1F (stereo not shown) [Compound J429, (Z)-1-(2-Fluoro-4-(5-(4-(trifluoromethoxy)phenyl)-1,3,4-oxadiazol-2-yl)phenyl)-3-(3-(2-(1-methoxyethyl)-5-methylphenyl)-4-oxothiazolidin-2-ylidene)urea] showed a pest or weed control at 50 µg/cm2 ([1]; read-out: BAW rating) of 50 to 100% and a pest or weed control at 50 µg/cm2 ([2]; read-out: CL rating) of 50 to 100%.

In the case of Cc1ccc(OCCC(F)(F)F)c(N2C(=O)CS/C2=N\C(=O)Nc2ccc(-c3ncn(-c4ccc(OC(F)(F)F)cn4)n3)cc2C(F)(F)F)c1 [Compound J273, (Z)-1-(3-(5-Methyl-2-(3,3,3-trifluoropropoxy)phenyl)-4-oxothiazolidin-2-ylidene)-3-(4-(1-(5-(trifluoromethoxy)pyridin-2-yl)-1H-1,2,4-triazol-3-yl)-2-(trifluoromethyl)phenyl)urea], the pest or weed control at 50 µg/cm2 [1, 3] is reported as 50 to 100% and the pest or weed control at 50 µg/cm2 [2, 4] is reported as 50 to 100%.

For Cc1ccc(-c2ccco2)c(N2C(=O)CS/C2=N\C(=O)Nc2ccc(-c3ncn(-c4ccc(OC(F)(F)F)cc4)n3)cc2F)c1 [Compound J489, (Z)-1-(2-Fluoro-4-(1-(4-(trifluoromethoxy)phenyl)-1H-1,2,4-triazol-3-yl)phenyl)-3-(3-(2-(furan-2-yl)-5-methylphenyl)-4-oxothiazolidin-2-ylidene)urea], the pest or weed control at 50 µg/cm2 ([1]; read-out: BAW rating) was 50 to 100% and the pest or weed control at 50 µg/cm2 ([2]; read-out: CL rating) was 50 to 100%.

Work on Cc1ccc(C(C)C)c(N2C(=O)CS/C2=N\C(=O)Nc2ccc(-c3cn(-c4ccc(C(F)(F)F)cn4)cn3)cc2F)c1 [Compound J482, (Z)-1-(2-Fluoro-4-(1-(5-(trifluoromethyl)pyridin-2-yl)-1H-imidazol-4-yl)phenyl)-3-(3-(2-isopropyl-5-methylphenyl)-4-oxothiazolidin-2-ylidene)urea] yielded a pest or weed control at 50 µg/cm2 ([1]; read-out: BAW rating) of 50 to 100% and a pest or weed control at 50 µg/cm2 ([2]; read-out: CL rating) of 50 to 100%.

Compound CCOCc1ccc(C)cc1N1C(=O)CS/C1=N\C(=O)Nc1ccc(-c2ncn(-c3ccc(SC(F)(F)F)cc3)n2)cc1F [Compound J195, (Z)-1-(3-(2-(Ethoxymethyl)-5-methylphenyl)-4-oxothiazolidin-2-ylidene)-3-(2-fluoro-4-(1-(4-((trifluoromethyl)thio)phenyl)-1H-1,2,4-triazol-3-yl)phenyl)urea] has a pest or weed control at 50 µg/cm2 [1, 3] of 50 to 100% and a pest or weed control at 50 µg/cm2 [2, 4] of 50 to 100%.

With COc1ccc(-n2cnc(-c3ccc(NC(=O)/N=C4\SCC(=O)N4c4cc(C)ccc4COCC(F)F)c(F)c3)n2)cc1 [Compound J757, (Z)-1-(3-(2-((2,2-Difluoroethoxy)methyl)-5-methylphenyl)-4-oxothiazolidin-2-ylidene)-3-(2-fluoro-4-(1-(4-methoxyphenyl)-1H-1,2,4-triazol-3-yl)phenyl)urea] the pest or weed control at 50 µg/cm2 ([1]; read-out: BAW rating) was 50 to 100% and the pest or weed control at 50 µg/cm2 ([2]; read-out: CL rating) was 50 to 100%.

With CCCc1ccc(OC)cc1N1C(=O)CS/C1=N\C(=O)Nc1ccc(-c2ncn(-c3ccc(OC(F)(F)F)cc3)n2)cc1F [Compound J43, (Z)-1-(2-Fluoro-4-(1-(4-(trifluoromethoxy)phenyl)-1H-1,2,4-triazol-3-yl)phenyl)-3-(3-(5-methoxy-2-propylphenyl)-4-oxothiazolidin-2-ylidene)urea] the pest or weed control at 50 µg/cm2 [1, 3] was 50 to 100% and the pest or weed control at 50 µg/cm2 [2, 4] was 50 to 100%.
